Patent publication US20190166840A1, “SUBSTITUTED PYRAZOLINYL DERIVATIVES, PROCESSES FOR THEIR PREPARATION AND THEIR USE AS HERBICIDES AND/OR PLANT GROWTH REGULATORS” (BAYER CROPSCIENCE AKTIENGESELLSCHAFT, priority 2016, published 2019)

Legend:
Format in all cases: in vivo
Conditions in all cases: application rate 1280 g/ha, scored visually after about 3 weeks
Setaria viridis = assay: Pre-emergence herbicidal action, SETVI
From the text: (§1) Pre-Emergence Herbicidal Action Seeds of mono- and dicotyledonous weed plants or crop plants were placed in sandy loam in wood fibre pots and covered with soil. The formulated compounds of the general formula (I) according to the invention were then applied to the surface of the covering soil in the form of an aqueous suspension or emulsion at an application rate of 600 l of water/ha (converted) with addition of 0.2% wetting agent. After the treatment, the pots were placed in a greenhouse and kept under good growth conditions for the test plants. After about 3 weeks, the effect was scored visually in percent in comparison to untreated controls. For example, 100% activity=the plants have died, 50% herbicidal activity or damage=plants reduced to 50% or plant material reduced by 50%, 0% activity=like control plants. Here, in the biological tests, the compounds of the general formula (I) according to the invention were in each case employed in a formulation, with the numerations of Tables I.1 to I.77 also applying here. Here, the herbicidal action of the compounds of the general formula (I) according to the invention was examined for the following harmful plants: SETVI=Setaria viridis The respective herbicidal action was in each case determined at the same point in time after application of the formulation in question, i.e. damage of the harmful plant in question in %. Pre-emergence herbicidal action of the compounds of the general formula (I) according to the invention: […]

[1] = test system: Matricaria inodora (=Tripleurospermum maritimum subsp. inodorum); assay: Pre-emergence herbicidal action, MATIN
From the text: as §1, with “MATIN=Matricaria inodora (=Tripleurospermum maritimum subsp. inodorum)” for “SETVI=Setaria viridis”

[2] = test system: Polygonum convolvulus (=Fallopia convolvulus); assay: Pre-emergence herbicidal action, POLCO
From the text: as §1, with “POLCO=Polygonum convolvulus (=Fallopia convolvulus)” for “SETVI=Setaria viridis”

Stellaria media = assay: Pre-emergence herbicidal action, STEME
From the text: as §1, with “STEME=Stellaria media” for “SETVI=Setaria viridis”

Viola tricolor = assay: Pre-emergence herbicidal action, VIOTR
From the text: as §1, with “VIOTR=Viola tricolor” for “SETVI=Setaria viridis”

SMILES | Pre-emergence herbicidal action SETVI, damage of the harmful plant (Setaria viridis) [%] | Pre-emergence herbicidal action MATIN, damage of the harmful plant [1] [%] | Pre-emergence herbicidal action POLCO, damage of the harmful plant [2] [%] | Pre-emergence herbicidal action STEME, damage of the harmful plant (Stellaria media) [%] | Pre-emergence herbicidal action VIOTR, damage of the harmful plant (Viola tricolor) [%]
CC1=C(C)C(O)N(C2=NN(c3ccccn3)C(C)(C)C2)C1=O (stereo not drawn) [I.2-132] | 40 | 0 | 40 | 100 | 80
CC1=C(C)C(O)N(C2=NN(c3ccccc3)C(C(F)(F)F)C2)C1=O (stereo not drawn) [I.2-1413] | 70 | 100 | 100 | 100 | 100
CCC(=O)OC1C(C)=C(C)C(=O)N1C1=NN(c2ccccn2)C(C)(C)C1 (stereo not drawn) [I.23-132] | 0 | 40 | 0 | 100 | 70
CCC(=O)OC1C(C)=C(C)C(=O)N1C1=NN(c2ccccc2)CC1 (stereo not drawn) [I.23-621] | 50 | 50 | 100 | 0 | 70
CCC(=O)OC1C(C)=C(C)C(=O)N1C1=NN(c2ccccc2)C(C(F)(F)F)C1 (stereo not drawn) [I.23-1413] | 40 | 70 | 80 | 80 | 100
CCC(=O)OC1C(C)=C(Cl)C(=O)N1C1=NN(C)C(c2ccccc2)C1 (stereo not drawn) [I.24-1126] | 0 | 90 | 0 | 20 | 10
